“And” between values parts separate entries of the source, which are not always exact repeats. Equal values may be shown once. “Also recorded” adds a separate entry of the source.
Tests used:
[1] = tested on: neuroblastoma-spinal cord hybrid NSC-34 cells; test: Neuroprotective effect/cell viability analysis in NSC-34 cells against H2O2 induced oxidative stress; type: cell-based; conditions: 250 μM H2O2
Procedure: Methods: The in vitro properties and antioxidant abilities of the synthesized B^5-EDR analogues were assessed in cell-based assays. […] The methodology employed for each of these assays is detailed below.
(iii) Methodology for neuroprotective effect/cell viability analysis in (NSC-34) cells (FIGS. 8A-B): Briefly, NSC-34 cells with about 20 k cells per well in 96 well plates were cultured in a complete medium consisting of high glucose Dulbecco's modified eagle medium (DMEM) (Thermo Fisher Scientific) supplemented with about 10% US-origin fetal bovine serum (Thermo Fisher Scientific), GlutaMAX-1, about 200 mM (100×) (Thermo Fisher Scientific), about 1% 100 mM Sodium pyruvate and about 1% 10,000 U/mL penicillin-streptomycin solution (Thermo Fisher Scientific) for about 20 h to reach confluency of about 70%—about 75%. All the cells were cultured in an incubator with about 5% of CO2 at about 37° C. About 20 kcells/100 μl/well were seeded in 96 well plates for about 20 h in triplicates. […] After about 1 h, the cells were treated with 250 μM of H2O2 for about 2 h. After a total period of about 3 h, about 10 μl of WST-8 reagent was added in each well and the absorbance readings were recorded after about 2.5 h at about 450 nm. All the experiments were repeated at least three times and measurements were run in triplicates.

[2] = tested on: SOD1-G37R mouse model of ALS, Het G37R (Line 42) mice; test: Therapeutic efficacy in the SOD1-G37R mouse model of ALS; type: in vivo
Procedure: Methods: B^5-EDR analogues were synthesized as described in Example 1. The specific methodology employed for this Example is described below. All the statistical analyses were carried out by using GraphPad Prism […] software (version 9.5.1 (733)), (GraphPad Software, La Jolla, CA). Statistical significance was performed using a two-tailed unpaired t-test used for body weight assessment, disease onset, survival, and weight loss comparisons. Kaplan-Meier survival analysis and log rank test was also used for survival analysis. For these in vivo studies, disease onset or symptom onset was defined by two criteria. The first criteria is defined by the loss of 10% body weight based on the highest recorded weight during the age of the mice after pre symptom onset treatment study. The loss of 10% body weight is often accompanied by appearance of symptoms of muscle weakness and the second criteria of disease onset, which is retrospectively defined as the age at which the mouse reaches peak weight. Mice were assessed and monitored daily by trained staff for weight and muscle weakness starting at 90 days of age i.e., well before clinical onset of disease. According to the common consensus among ALS scientific community, the disease onset is defined as a time when mice have reached their peak body weight well before the denervation induced muscle atrophy and weight loss.
Transgenic mice carrying human G37R mutant SOD1 [B6.Cg Tg(SOD1*G37R)42Dpr/J] were obtained from the Jackson Laboratory (Bar Harbor, ME, USA). These mice were crossed with female mice with a C57BL/6 background for at least four generations. Colonies are maintained in the Central Animal Care Services (CACS), University of Manitoba. The mice were used in accordance with the Guide of Care and Use of Experimental Animals of the Canadian Council on Animal Care. Transgenic offspring were genotyped by PCR of DNA obtained from ear biopsies, see (ia) below, using a protocol provided by the Jackson Laboratory.
For these experiments, a set of experiments was carried out having two groups of mice: • Group 1: Sham treatment (1:20 DMSO/PBS); and • Group 2: NS-1-2 treatment (1:20 DMSO/PBS) (10 mg/kg body weight/day). For these experiments, age matched Het G37R (Line 42) mice were administered vehicle (1:20, DMSO:PBS) or treatment (NS-1-2; 10 mg/kg bodyweight), daily, starting at the age of 90 days until the age of 210 days, and monitored daily for several significant humane point indicators including, a) Mouse unable to right itself in 15 sec b) 25% loss of weight on the highest recorded weight c) Full paralysis of one or more hind limbs d) Loss of bladder functions e) Crusty eyes/loss of vision and/or f) Penile prolapse.
For weight loss experiments, weight loss was based on highest recorded weight (humane end point).
For disease onset experiments, symptom onset was assessed (i.e. loss of 10% body weight based on the highest recorded weight with muscle weakness and time to peak body weight (days), was assessed and monitored daily by trained staff starting at 90 days of age i.e., well before pre-symptom onset of disease also, monitored daily for several significant humane point indicators including a) Mouse unable to right itself in 15 sec b) 25% loss of weight on the highest recorded weight c) Full paralysis of one or more hind limbs d) Loss of bladder functions e) Crusty eyes/loss of vision f) Penile prolapse. One tailed (unpaired t test) was performed to analyse age to reach (10%) loss of body weight.

[3] = individual animals, NS-1-2 treatment (N = 10)

Cc1cc(B2OC(C)(C)C(C)(C)O2)n(-c2ccccc2)n1 [NS-1-2, 3-methyl-5-(4,4,5,5-tetramethyl-1,3,2-dioxaborolan-2-yl)-1-phenyl1H-pyrazole]
neuroprotection in scavenging neurotoxic effects of H2O2 compared to EDR ([1]; 1 μM): better neuroprotection | neuroprotection in scavenging neurotoxic effects of H2O2 compared to EDR ([1]; 25 μM): better neuroprotection | viability compared to EDR ([1]; 50 μM dose): almost equal viability | prolongation of survival age or life span versus control (Kaplan-Meier) ([2]; 10 mg/kg/day IP from age 90 to 210 days): 14.5 days | mean age of survival (humane end point) ([2]; 10 mg/kg/day IP from age 90 to 210 days, n=10, FIG. 14): 196.7 days | median survival (Kaplan-Meier) ([2]; 10 mg/kg/day IP from age 90 to 210 days, n=10, FIG. 15): 199.5 days | delay of disease onset versus control (Kaplan-Meier) ([2]; age to reach peak body weight): 20 days | percentage mean weight loss (humane end point) ([2]; based on highest recorded weight, n=10, FIG. 16): 17.55% | Age to reach 10% loss of body weight based on highest recorded weight with muscle weakness [2, 3]: 199 days and 171 days and 184 days and 180 days and 193 days and 195 days (2×) and 203 days and 196 days and 165 days | Disease Onset: Age to reach peak body weight [2, 3]: 143 days (2×) and 156 days and 147 days and 154 days and 164 days and 163 days and 188 days and 148 days and 144 days | Treatment G37R (Survival Days) (Humane End Point) [2, 3]: 201 Days (2×) and 205 Days and 189 Days and 195 Days and 198 Days and 203 Days and 197 Days and 204 Days and 174 Days | 25% Loss of Weight Based on Highest Recorded Weight (Humane End Point) ([2]; individual animals, above or below the 25% criterion): Weight Loss <25% | Weight Loss (%) ([2]; individual animals, humane end point, based on highest recorded weight): Weight Loss (%): 17.056; also recorded: Weight Loss (%): 18.91; also recorded: Weight Loss (%): 19.67; also recorded: Weight Loss (%): 20; also recorded: Weight Loss (%): 15.68; also recorded: Weight Loss (%): 18.543; also recorded: Weight Loss (%): 10.122; also recorded: Weight Loss (%): 13.66; also recorded: Weight Loss (%): 18.548; also recorded: Weight Loss (%): 23.34 | difference in survival versus control ([2]; mean, 10 mg/kg/day IP from age 90 to 210 days): 13.3 days | delay of disease onset versus control (10% weight loss) ([2]; mouse, in vivo): around 23.2 days | delay of disease onset versus control (time to peak body weight, mean) ([2]; mouse, in vivo): around 23.6 days | disease onset: mean age (loss of 10% body weight with muscle weakness) ([2]; n=10, FIG. 17): 188.1 days | disease onset: mean age (time to peak body weight) ([2]; n=10, FIG. 18): 155 days | median age to reach peak body weight (Kaplan-Meier, printed as median survival) ([2]; n=10, FIG. 19): 151 days
